Values quoted from earlier work as cited in patent US6299888A, “Azelastine hydrochloride-containing percutaneous preparation having good percutaneous absorbability and reduced skin irritation” (Teikoku Seiyaku Kabushiki Kaisha, priority 1997, dated 2001).
Counter-ions that a name gives are not always drawn.

dissociation constant (pKa): about 9.5
SMILES: CN1CCCC(n2nc(Cc3ccc(Cl)cc3)c3ccccc3c2=O)CC1 (stereo not shown) [azelastine hydrochloride]
